Source: patent publication US7468353B2, “Biologically active substance of a vasoactive intestinal peptide for treating interstitial lung diseases” (Mondobiotech Laboratories Anstalt, priority 2003, dated 2008)

Tests used:
[1] = tested on: CD 83 surface molecules on human dentritic cells; assay: Effect of VIP on maturation of human dentritic cells: CD 83 surface molecules, fluorescence-activated cell analysis; assay type: cell-based
Text: (§1) FIGS. 1-11 show the effect of VIP on the maturation of human dentritic cells. […] is a characteristic surface protein on mature dentritic cells. Low rates of said protein indicate non-maturation of cells and thus, the inability to execute their biological function. […] Said reduction is indicated by the value M1 38.22—when measuring after application of 9.1 μmol—and compared to the value M1 81.26 (FIG. 10) of untreated cells (FIG. 1)—in the fluorescence-activated cell analysis. This procedure consists of searching the cell surfaces with the help of fluorescence-marked antibodies for the corresponding antigens (here: CD 83).

[2] = tested on: MHC II surface molecules on human dentritic cells; assay: Effect of VIP on human dentritic cells: MHC II surface molecules, fluorescence-activated cell analysis; assay type: cell-based
Text: [The procedure below names another target; the source lists this target under the same test.] as §1

PACAP receptor type II = settings: PACAP versus VIP; cited from earlier work
[3] = tested on: MHC I surface molecules on human dentritic cells; assay: Effect of VIP on human dentritic cells: MHC I surface molecules, fluorescence-activated cell analysis; assay type: cell-based
PACAP receptor type I = target: T1, PACAP receptor type I (Homo sapiens, UniProt P41586); settings: cited from earlier work
T1 sequence (P41586 21-468): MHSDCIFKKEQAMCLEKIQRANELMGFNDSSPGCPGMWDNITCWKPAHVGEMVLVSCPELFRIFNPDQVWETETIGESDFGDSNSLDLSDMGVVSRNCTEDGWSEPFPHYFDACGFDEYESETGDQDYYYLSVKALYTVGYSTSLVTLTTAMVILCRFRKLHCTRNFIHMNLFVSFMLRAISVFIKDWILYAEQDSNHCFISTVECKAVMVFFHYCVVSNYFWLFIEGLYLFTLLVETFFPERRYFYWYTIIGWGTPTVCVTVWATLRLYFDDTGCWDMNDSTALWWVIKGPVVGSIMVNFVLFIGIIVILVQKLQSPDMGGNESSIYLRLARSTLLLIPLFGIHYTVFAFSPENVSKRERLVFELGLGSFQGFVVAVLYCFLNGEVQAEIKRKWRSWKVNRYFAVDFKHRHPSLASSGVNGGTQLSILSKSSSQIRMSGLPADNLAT

[4] = VIP 9.1 μM, marker All, FIG. 11

Substance: His-Ser-Asp-Ala-Val-Phe-Thr-Asp-Asn-Tyr-Thr-Arg-Leu-Arg-Lys-Gln-Met-Ala-Val-Lys-Lys-Tyr-Leu-Asn-Ser-Ile-Leu-Asn [VIP]
- CD 83 % Gated, marker All ([1]; VIP 1 μM, FIG. 6): 100.00%
- CD 83 Mean, marker All ([1]; VIP 1 μM, FIG. 6): 108.13
- CD 83 % Gated, marker M1 ([1]; VIP 1 μM, FIG. 6): 69.70%
- CD 83 Mean, marker M1 ([1]; VIP 1 μM, FIG. 6): 137.30
- CD 83 % Gated, marker All ([1]; VIP 9.1 μM, FIG. 10): 100.00%
- CD 83 Mean, marker All ([1]; VIP 9.1 μM, FIG. 10): 76.48
- CD 83 % Gated, marker M1 ([1]; VIP 9.1 μM, FIG. 10): 38.22%
- CD 83 Mean, marker M1 ([1]; VIP 9.1 μM, FIG. 10): 143.06
- value M1 for CD 83 ([1]; after application of 9.1 μmol VIP, untreated cells 81.26): 38.22
- effect on CD 83 surface molecules ([1]; application of 1 μmol VIP (FIG. 5)): dramatic reduction
- effect on CD 83 surface molecules ([1]; application of 9.1 μmol VIP (FIG. 9)): dramatic reduction
- value M1 for MHC II ([2]; 9.1 μmol VIP, untreated cells 83.94): 77.73
- MHC II % Gated, marker All ([2]; VIP 1 μM, FIG. 8): 100.00%
- MHC II Mean, marker All ([2]; VIP 1 μM, FIG. 8): 170.33
- MHC II % Gated, marker M1 ([2]; VIP 1 μM, FIG. 8): 77.41%
- MHC II Mean, marker M1 ([2]; VIP 1 μM, FIG. 8): 207.21
- MHC II % Gated, marker All ([2]; VIP 9.1 μM, FIG. 12): 100.00%
- MHC II Mean, marker All ([2]; VIP 9.1 μM, FIG. 12): 175.73
- MHC II % Gated, marker M1 ([2]; VIP 9.1 μM, FIG. 12): 77.73%
- MHC II Mean, marker M1 ([2]; VIP 9.1 μM, FIG. 12): 213.25
- inhibition of MHC II surface molecules compared with CD 83 ([2]; same dose of VIP): far less inhibited
- affinity of receptor type II (PACAP receptor type II): similar
- value M1 for MHC 1 ([3]; 9.1 μmol VIP, untreated cells 85.59): 70.57
- MHC I % Gated, marker All ([3]; VIP 1 μM, marker All, FIG. 7): 100.00%
- MHC I Mean, marker All ([3]; VIP 1 μM, marker All, FIG. 7): 200.61
- MHC I % Gated, marker M1 ([3]; VIP 1 μM, marker M1, FIG. 7): 78.69%
- MHC I Mean, marker M1 ([3]; VIP 1 μM, marker M1, FIG. 7): 242.97
- MHC 1 % Gated, marker All [3, 4]: 100.00%
- MHC 1 Mean, marker All [3, 4]: 136.67
- MHC 1 % Gated, marker M1 ([3]; VIP 9.1 μM, marker M1, FIG. 11): 70.57%
- MHC 1 Mean, marker M1 ([3]; VIP 9.1 μM, marker M1, FIG. 11): 174.61
- inhibition of MHC I surface molecules compared with CD 83 ([3]; same dose of VIP): far less inhibited
- affinity of receptor type I (PACAP receptor type I): very low affinity

Substance: His-Ser-Asp-Gly-Ile-Phe-Thr-Asp-Ser-Tyr-Ser-Arg-Tyr-Arg-Lys-Gln-Met-Ala-Val-Lys-Lys-Tyr-Leu-Ala-Ala-Val-Leu-Gly-Lys-Arg-Tyr-Lys-Gln-Arg-Val-Lys-Asn-Lys [PACAP]
- affinity of receptor type II (PACAP receptor type II): similar
- affinity of receptor type I (PACAP receptor type I): high affinity
